Test results reported in patent US11396517B1, “Exo-aza spiro inhibitors of menin-MLL interaction” (Janssen Pharmaceutica NV, priority 2017, dated 2022).
Where two headings read alike, the source gives them in different places.

Key:
menin = target: T1, menin (Homo sapiens, UniProt O00255, T541A); test: Menin/MLL homogenous time-resolved fluorescence (HTRF) assay; assay type: binding; settings: location 2; read-out: (2) location 2 Menin HTRF assay (IC50 (nM))
T1 construct: Menin (a.a. 1-610-6×his tag)
T1 sequence (O00255 with tags, fused parts or gaps T541A): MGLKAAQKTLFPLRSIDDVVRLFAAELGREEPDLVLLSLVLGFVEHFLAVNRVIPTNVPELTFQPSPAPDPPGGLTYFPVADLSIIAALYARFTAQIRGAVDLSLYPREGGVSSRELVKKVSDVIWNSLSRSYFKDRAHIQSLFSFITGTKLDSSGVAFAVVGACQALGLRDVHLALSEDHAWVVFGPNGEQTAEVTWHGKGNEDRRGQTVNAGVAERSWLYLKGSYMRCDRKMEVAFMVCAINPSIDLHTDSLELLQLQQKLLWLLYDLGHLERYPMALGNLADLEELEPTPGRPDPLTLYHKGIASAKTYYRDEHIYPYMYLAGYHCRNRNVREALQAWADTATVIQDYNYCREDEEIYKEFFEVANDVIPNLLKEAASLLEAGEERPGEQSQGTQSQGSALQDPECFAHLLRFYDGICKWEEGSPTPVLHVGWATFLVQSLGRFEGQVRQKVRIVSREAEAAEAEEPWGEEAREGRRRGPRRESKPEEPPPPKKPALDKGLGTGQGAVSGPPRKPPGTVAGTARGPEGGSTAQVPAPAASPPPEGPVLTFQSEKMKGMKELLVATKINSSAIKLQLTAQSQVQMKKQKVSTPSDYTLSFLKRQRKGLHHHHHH
How it was run: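 Terbium-labeled menin (aa 1-610, His-tagged; […]) preincubated 5 min with compound, then 75 nM FITC-MBM1 peptide for 15 min, ambient, Tris pH 7.5, 0.5% DMSO. HTRF 520/490 ratio; 11-point 3-fold titration; IC50 from % inhibition fit.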

MOLM14 = test: Proliferation assay B (spheroid assay) MOLM14; assay type: cell-based, human; settings: MOLM14 cells, confluence at day 8, absolute IC50, read-out: (3b) Spheroid assay MOLM14 (IC50(μM)) Assay B
Procedure: 3b) Proliferation Assay B
The anti-proliferative effect of menin/MLL protein/protein interaction inhibitor test compounds was assessed in human leukemia cell lines. The cell lines MV-4-11 and MOLM14 harbor MILL translocations and express the MILL fusion proteins MLL-AF4 and MLL-AF9, respectively, as well as the wildtype protein from the second allele. […] K562 was used as a control cell line containing two MLL wildtype alleles in order to exclude compounds that display general cytotoxic effects.
MV-4-11 and MOLM14 were cultured in RPMI-1640 (Sigma Aldrich) supplemented with 10% fetal bovine serum (HyClone), 2 mM L-glutamine (Sigma Aldrich) and 50 μg/ml gentamycin (Gibco). K562 were propagated in RPMI-1640 (Sigma Aldrich) supplemented with 20% fetal bovine serum (HyClone), 2 mM L-glutamine (Sigma Aldrich) and 50 μg/ml gentamycin (Gibco).
In order to assess the anti-proliferative effects, 1,500 MV-4-11, 300 MOLM14 cells or 750 K562 cells were seeded in 200 μl media per well in 96-well round bottom, ultra-low attachment plates (Costar, catalogue number 7007). Cell seeding numbers were chosen based on growth curves to ensure linear growth throughout the experiment. Test compounds were added at different concentrations and the DMSO content was normalized to 0.3%. Cells were incubated for 8 d at 37° C. and 5% CO2. Spheroid like growth was measured in real-time by live-cell imaging (IncuCyteZOOM, Essenbio, 4× objective) acquiring images at day 8. Confluence (%) as a measure of spheroid size was determined using an integrated analysis tool.
In order to determine the effect of the test compounds over time, the confluence in each well as a measure of spheroid size, was calculated. Confluence […] at the beginning of the experiment (t=0) was used as baseline for the calculation.
Absolute IC50 values were calculated as percent change in confluence as follows:
LC=Low Control: cells treated with 1 μM of the cytotoxic agent staurosporin
HC=High Control: Mean confluence (%) (DMSO treated cells) % Effect=100−(100*(Sample−LC)/(HC−LC))
To determine the IC50 a curve is fitted to the plot of % Effect vs Log 10 compound concentration using a sigmoidal fit with a variable slope and fixing the maximum to 100% and the minimum to 0%.

| IC50 (menin) | IC50 (MOLM14) | IC50 (MOLM14; Homo sapiens, MOLM-14, 192 h) | SMILES |
| --- | --- | --- | --- |
| 9.2 nM | 2.1 µM | – | CS(=O)(=O)N1CCN(CCNC(=O)c2ccc(NC3CC4(CCN(c5ncnc6sc(CC(F)(F)F)cc56)C4)C3)cc2)CC1 (single isomer, unassigned) [Compound 190] |
| 4.9 nM | – | > 3.75 µM | CS(=O)(=O)Nc1ccc(NC2CC3(CCN(c4ncnc5sc(CC(F)(F)F)cc45)C3)C2)cc1 (mixture of isomers) [Compound 343] |
| 36 nM | > 3.75 µM | – | CC1CN(C(=O)c2ccc(NC3CC4(CCN(c5ncnc6sc(CC(F)(F)F)cc56)C4)C3)cc2)CC(C)O1 (single isomer, unassigned) [Compound 406] |
| 27.9 nM | – | > 3.75 µM | Nc1nc(N2CCC3(CC(Nc4ccc5[nH]c(=O)[nH]c5c4)C3)C2)c2cc(CC(F)(F)F)sc2n1 (single isomer, unassigned) [Compound 382] |
| 20.2 nM | – | 0.85 µM | Cn1c(=O)[nH]c2cc(NC3CC4(CCN(c5ncnc6sc(CC(F)(F)F)cc56)C4)C3)ccc21 (single isomer, unassigned) [Compound 90] |
| 116 nM | > 3.75 µM | – | CC(C#N)(C#N)c1ccc(NC2CC3(CCN(c4ncnc5sc(CC(F)(F)F)cc45)C3)C2)cc1 (single isomer, unassigned) [Compound 234] |
| 4.1 nM | 1.53 µM | – | CC(C#N)(C#N)c1ccc(NC2CC3(CCN(c4ncnc5sc(CC(F)(F)F)cc45)C3)C2)cc1 (single isomer, unassigned) [Compound 235] |
| 2680 nM | > 3.75 µM | – | CNC(=O)Cn1cc(NC2CC3(CCN(c4ncnc5sc(CC(F)(F)F)cc45)C3)C2)cn1 (single isomer, unassigned) [Compound 356] |
| 4000 nM | – | > 3.75 µM | CS(=O)(=O)N1CCN(CCn2c(=O)[nH]c3ccc(NC4CC5(CCN(c6ncnc7sc(CC(F)(F)F)cc67)C5)C4)cc32)CC1 (mixture of isomers) [Compound 221] |
| 74.6 nM | > 3.75 µM | – | CN(C)CCNC(=O)c1ccc(NC2CC3(CCN(c4ncnc5sc(CC(F)(F)F)cc45)C3)C2)c(F)c1 (single isomer, unassigned) [Compound 242] |
| 114 nM | – | 2.64 µM | CN1CCC(COc2cc(NC3CC4(CCN(c5ncnc6sc(CC(F)(F)F)cc56)C4)C3)ccc2C#N)CC1 (mixture of isomers) [Compound 241] |
| 19.3 nM | – | > 3.75 µM | CS(=O)(=O)N1CCN(CCn2c(=O)oc3ccc(CNC4CC5(CCN(c6ncnc7sc(CC(F)(F)F)cc67)C5)C4)cc32)CC1 (mixture of isomers) [Compound 349] |
| 0.9 nM | 1 µM | – | CNC(=O)c1cc(F)c(NC2CC3(CCN(c4ncnc5sc(CC(F)(F)F)cc45)C3)C2)c(F)c1 (single isomer, unassigned) [Compound 229] |
| 108 nM | – | > 3.75 µM | O=C(c1cnc(NC2CC3(CCN(c4ncnc5sc(CC(F)(F)F)cc45)C3)C2)nc1)N1CCOCC1 (single isomer, unassigned) [Compound 258] |
| 139 nM | > 3.75 µM | – | O=C(c1ccc(NC2CC3(CCN(c4ncnc5sc(CC(F)(F)F)cc45)C3)C2)c(F)c1)N1CCOCC1 (single isomer, unassigned) [Compound 352] |
| 4.4 nM | – | > 3.75 µM | CNc1nc(N2CCC3(CC(Nc4ccc5oc(=O)[nH]c5c4)C3)C2)c2cc(CC(F)(F)F)sc2n1 (single isomer, unassigned) [Compound 397] |
| 80.2 nM | > 3.75 µM | – | CNC(=O)c1ccc(NC2CC3(CCN(c4ncnc5sc(CC(F)(F)F)cc45)C3)C2)c(F)c1F (single isomer, unassigned) [Compound 227] |
| 33.4 nM | 1.09 µM | – | N#Cc1ccc(NC2CC3(CCN(c4ncnc5sc(CC(F)(F)F)cc45)C3)C2)nc1 (single isomer, unassigned) [Compound 175] |

| IC50 (menin) | IC50 (MOLM14) | IC50 (MOLM14; Homo sapiens, MOLM-14, 192 h) | SMILES |
| --- | --- | --- | --- |
| 63.6 nM | – | > 3.75 µM | CS(=O)(=O)NCc1ccc(NC2CC3(CCN(c4ncnc5sc(CC(F)(F)F)cc45)C3)C2)cc1 (single isomer, unassigned) [Compound 367] |
| 45.7 nM | – | 0.6 µM | FC(F)(F)Cc1cc2c(N3CC[C@]4(CC[C@H](Nc5ccc(-c6cc[nH]n6)cc5)C4)C3)ncnc2s1 (stereo in doubt) [Compound 142] |
| 21.1 nM | – | 3.55 µM | FC(F)(F)Cc1cc2c(N3CCC4(CC(Nc5ccc(CN6CCOCC6)cc5)C4)C3)ncnc2s1 (mixture of isomers) [Compound 350] |
| 16.2 nM | – | > 3.75 µM | NC(=O)Cn1c(=O)[nH]c2cc(NC3CC4(CCN(c5ncnc6sc(CC(F)(F)F)cc56)C4)C3)ccc21 (single isomer, unassigned) [Compound 359] |
| 2 nM | 2.54 µM | – | CNC(=O)c1ccc(NC2CC3(CCN(c4ncnc5sc(CC(F)(F)F)cc45)C3)C2)cc1 (mixture of isomers) [Compound 329] |
| 448 nM | > 3.75 µM | – | NC(=O)Cn1c(=O)[nH]c2cc(NC3CC4(CCN(c5ncnc6sc(CC(F)(F)F)cc56)C4)C3)ccc21 (single isomer, unassigned) [Compound 360] |
| 23.9 nM | – | > 3.75 µM | CNC(=O)c1ccc(N[C@H]2CC[C@@]3(CCN(c4ncnc5sc(CC(F)(F)F)cc45)C3)C2)cc1 (stereo in doubt) [Compound 135] |
| 135 nM | – | > 3.75 µM | O=C(c1ccc(NC2CC3(C2)CN(c2ncnc4sc(CC(F)(F)F)cc24)C3)cc1)N1CCOCC1 [Compound 423] |
| 30.9 nM | – | 1.82 µM | FC(F)(F)Cc1cc2c(N3CC[C@@]4(CC[C@H](Nc5ccc(-c6cc[nH]n6)cc5)C4)C3)ncnc2s1 (stereo in doubt) [Compound 140] |
| 82 nM | – | > 3.75 µM | COC1CCN(C(=O)c2ccc(NC3CC4(CCN(c5ncnc6sc(CC(F)(F)F)cc56)C4)C3)cc2)CC1 (single isomer, unassigned) [Compound 183] |
| 354 nM | – | > 3.75 µM | CNC(=O)c1ccc(NC2CC3(CCN(c4ncnc5sc(CC(F)(F)F)cc45)C3)C2)cc1OCCN(C)C (stereo not shown) [Compound 76] |
| 143 nM | – | > 3.75 µM | CS(=O)(=O)N1CCN(CCNC(=O)c2ccc(NC3CC4(CCN(c5ncnc6sc(CC(F)(F)F)cc56)C4)C3)cc2)CC1 (single isomer, unassigned) [Compound 189] |
| 191 nM | – | > 3.75 µM | O=C(NCCN1CCOCC1)c1ccc(NC2CC3(CCN(c4ncnc5sc(CC(F)(F)F)cc45)C3)C2)cc1 (stereo not shown) [Compound 87] |
| 30.6 nM | – | > 3.75 µM | CS(=O)(=O)N1CCC(C(N)=O)(c2ccc(NC3CC4(CCN(c5ncnc6sc(CC(F)(F)F)cc56)C4)C3)cc2)CC1 (stereo not shown) [Compound 376] |
| 58.7 nM | – | > 3.75 µM | O=C(NCCO)c1ccc(NC2CC3(CCN(c4ncnc5sc(CC(F)(F)F)cc45)C3)C2)cc1 (stereo not shown) [Compound 83] |
| 80 nM | – | > 3.75 µM | CNC(=O)c1ccc(NC2CC3(CCN(c4ncnc5sc(CC(F)(F)F)cc45)C3)C2)cc1CCCN(C)C (mixture of isomers) [Compound 236] |
| 1.7 nM | 0.69 µM | – | CNC(=O)c1ccc(NC2CC3(CCN(c4ncnc5sc(CC(F)(F)F)cc45)C3)C2)c(Cl)c1 (single isomer, unassigned) [Compound 69] |
